What was measured:
[1] = test system: cultured human mast cells; assay: Degranulation inhibition test using cultured human mast cells (IgE cross-linking, β-Hexosaminidase release); assay type: cell-based; conditions: Mast cell; Tables 2-x, thiophene compounds B; cultured human mast cells; read-out: human degranulation ave. IC50
How it was run: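 Degranulation was triggered by anti-hIgE (10 μg/mL final, 30 min, 37 °C) after a 10-min compound pretreatment (DMSO 0.1%) of cord-blood CD34+-derived mast cells primed 5 days with IL-4 and IgE. β-Hexosaminidase in supernatant was measured with p-nitrophenyl-GlcNAc substrate (A405), expressed against water-lysed total; IC50 (M).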

[2] = molecular target: GST-Syk Full Protein (human) (Homo sapiens, UniProt P43405); assay: Syk kinase inhibition test (HTRF method); assay type: biochemical; conditions: Tables 2-x, thiophene compounds B; read-out: sykHTRK ave IC50
How it was run: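 HTRF read-out: after EDTA termination and 1 h with XL665-streptavidin and Eu-anti-phosphotyrosine, the 665/620 nm ratio was measured. The reaction ran 30 min at 20–25 °C with final 6.4 nM human GST-Syk, 250 nM biotinylated peptide, 100 μM ATP, pH 7.0 HEPES buffer, 2% DMSO.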

IC50 [1] [nM] | IC50 [2] [nM] | Compound
100 to 1000 | < 100 | CC(=O)c1ccc(-c2cccc(Nc3cc(C4=NC(C)(C)CO4)ccn3)n2)s1 [Compound B-87, 1-(5-{6-[4-(4,4-dimethyl-4,5-dihydrooxazol-2-yl)pyridin-2-ylamino]pyridin-2-yl}thiophen-2-yl)ethanone]
100 to 1000 | 100 to 1000 | Cc1ccnc(Nc2cccc(-c3cc(C)c(C(=O)NC(C)(C)CO)s3)n2)c1 [Compound B-88]
> 1000 | 100 to 1000 | CCc1ccc(-c2cccc(Nc3cc(C)ccn3)n2)s1 [Compound B-91]
100 to 1000 | 100 to 1000 | Cc1ccnc(Nc2cccc(-c3ccc(C(C)N)s3)n2)c1 (centres unmarked) [Compound B-92]
100 to 1000 | 100 to 1000 | CC(=O)NC(C)c1ccc(-c2cccc(Nc3cc(C)ccn3)n2)s1 (centres unmarked) [Compound B-93]
100 to 1000 | 100 to 1000 | OCc1ccnc(Nc2cccc(-c3cccs3)n2)c1 [Compound B-94]
> 1000 | 100 to 1000 | Cc1ccnc(Nc2cccc(-c3ccc(-c4nnn[nH]4)s3)n2)c1 [Compound B-95]
> 1000 | 100 to 1000 | CC(=O)c1ccc(-c2cccc(Nc3cc(CO)ccn3)n2)s1 [Compound B-96]
> 1000 | 100 to 1000 | COC(=O)CCNC(=O)c1ccc(-c2cccc(Nc3cc(C)ccn3)n2)s1 [Compound B-97]
> 1000 | 100 to 1000 | Cc1ccnc(Nc2cccc(-c3ccc(C(=O)NCCC(=O)O)s3)n2)c1 [Compound B-98]
> 1000 | 100 to 1000 | Cc1ccnc(Nc2cccc(-c3ccc(C(=O)NCC(=O)O)s3)n2)c1 [Compound B-99]
> 1000 | 100 to 1000 | Cc1ccnc(Nc2cccc(-c3ccc(C(=O)NC(C)(C)C(=O)O)s3)n2)c1 [Compound B-100]
> 1000 | 100 to 1000 | Cc1ccnc(Nc2cccc(-c3ccc(C(=O)NC(C)(C)CC(=O)O)s3)n2)c1 [Compound B-101]
> 1000 | 100 to 1000 | Cc1ccnc(Nc2cccc(-c3ccc(C(=O)NCC(O)CO)s3)n2)c1 (centres unmarked) [Compound B-102]
> 1000 | 100 to 1000 | Cc1ccnc(Nc2cccc(-c3ccc(CNCCC(=O)O)s3)n2)c1 [Compound B-103]
> 1000 | 100 to 1000 | Cc1ccnc(Nc2cccc(-c3ccc(C(=O)NC4CC4)s3)n2)c1 [Compound B-104]

Source: patent US7803801B2, “Aminopyridine compounds having Syk inhibitory activity” (Japan Tobacco, Inc., priority 2005, dated 2010)
